Test results reported in patent US20110039763A1, “TARGETED ANTIMICROBIAL MOIETIES” (C3 JIAN, INC., priority 2009, published 2011).
Entries after “also recorded” stand apart in the source; their conditions may differ.

Columns and labels:
microorganisms [1] = test: Peptide activities: targeting/binding, antimicrobial, growth or phenotype altering (Tables 7, 8); type: cell-based; details: peptides having multiple activities
microorganisms [2] = test: Targeting peptide binding to target microorganisms (Tables 3, 10, 12); details: microorganism(s) the targeting peptide binds; binding in aqueous buffers varied with peptide solubility, preferably 1x PBS
microorganisms [3] = test: Morphology, biofilm and growth disrupting peptides (Table 5); type: cell-based; parameters: key: A: Peptide aggregates; B: Less hyphal formation; Clumps; Diffuse clumps and small polyps; F: Diffuse growth; H: Thin; I: Growth inhibition; Microcolony formation; Rippled; Small polyps; Thick; W: Halo formation on top, microlonies on bottom
Source text: In certain embodiments peptides that induce alterations in phenotype or other biological activities can also be used as antimicrobial effector moieties.

Substance	Activities (microorganisms [1])	Target(s) (microorganisms [2])	Organism, effect: E. coli (microorganisms [3])	Organism, effect: S. epidermidis (microorganisms [3])	Organism, effect: C. jejuni (microorganisms [3])	Organism, effect: E. faecalis (microorganisms [3])	Organism, effect: MRSA (microorganisms [3])	Organism, effect: S. pneumoniae (microorganisms [3])
PF-383: peptide having multiple activities (chain 1 WSEIEINTKQSN; chain 2 WSEIEINTKQSN; Peptide with targeting and/or antimicrobial activity)	G B	S. epidermidis; also recorded: B. subtilis; also recorded: B. fragilis; also recorded: E. coli; also recorded: C. jejuni	E. coli (R)	S. epidermidis (C)	–	–	–	–
PF-385: peptide having multiple activities (chain 1 MIKKSILKIKYYVPVLISLTLILSA; chain 2 MIKKSILKIKYYVPVLISLTLILSA; Peptide with targeting and/or antimicrobial activity)	G B	S. epidermidis; also recorded: E. coli; also recorded: P. aeruginosa; also recorded: C. albicans; also recorded: E. faecalis	E. coli (A)	–	–	–	–	–
PF-390: peptide having multiple activities (chain 1 VVAYVITQVGAIRF; chain 2 VVAYVITQVGAIRF; Peptide with targeting and/or antimicrobial activity)	G B	S. epidermidis and P. aeruginosa and C. albicans and MRSA	E. coli (C)	S. epidermidis (D)	C. jejuni (D)	E. faecalis (D)	MRSA (D)	S. pneumoniae (D)
PF-392: peptide having multiple activities (chain 1 DPAGCNDIVRKYCK; chain 2 DPAGCNDIVRKYCK; Peptide with targeting and/or antimicrobial activity)	G B	S. epidermidis; also recorded: B. subtilis; also recorded: S. pneumoniae; also recorded: C. jeikeium; also recorded: C. jejuni	–	–	C. jejuni (A)	E. faecalis (A)	MRSA (S)	–
PF-393: peptide having multiple activities (chain 1 DLVQSILSEFKKSG; chain 2 DLVQSILSEFKKSG; Peptide with targeting and/or antimicrobial activity)	G B	S. epidermidis and E. coli and C. albicans and MRSA and S. pneumoniae and C. jejuni	–	S. epidermidis (R)	C. jejuni (R)	E. faecalis (A)	MRSA (C)	S. pneumoniae (R)
PF-394: peptide having multiple activities (chain 1 VLKEECYQKN; chain 2 VLKEECYQKN; Peptide with targeting and/or antimicrobial activity)	G B	S. epidermidis and MRSA and C. jejuni	–	–	–	E. faecalis (A)	MRSA (C)	–
PF-395: peptide having multiple activities (chain 1 YCVPLGNMGNMNNKIW; chain 2 YCVPLGNMGNMNNKIW; Peptide with targeting and/or antimicrobial activity)	G B	S. epidermidis; also recorded: E. coli; also recorded: P. aeruginosa; also recorded: S. pneumoniae; also recorded: E. faecalis; also recorded: C. jeikeium; also recorded: C. jejuni	E. coli (R)	S. epidermidis (C)	–	–	MRSA (C)	–
PF-396: peptide having multiple activities (chain 1 LIYTILASLGVLTVLQAILGREPKAVKA; chain 2 LIYTILASLGVLTVLQAILGREPKAVKA; Peptide with targeting and/or antimicrobial activity)	G B	S. epidermidis; also recorded: E. coli; also recorded: P. aeruginosa; also recorded: C. albicans; also recorded: E. faecalis; also recorded: C. jeikeium	E. coli (C)	S. epidermidis (S)	–	E. faecalis (C)	MRSA (C)	–
PF-397: peptide having multiple activities (chain 1 VEDLMEDLNA; chain 2 VEDLMEDLNA; Peptide with targeting and/or antimicrobial activity)	G B	S. epidermidis and MRSA and S. pneumoniae and E. faecalis and C. jejuni	–	S. epidermidis (C)	–	–	–	–
PF-401: peptide having multiple activities (chain 1 YWLSRVTTGHSFAFEKPVPLSLTIK; chain 2 YWLSRVTTGHSFAFEKPVPLSLTIK; Peptide with targeting and/or antimicrobial activity)	G B	S. epidermidis and E. coli and P. aeruginosa and MRSA and E. faecalis and C. jejuni	E. coli (R)	S. epidermidis (C)	–	E. faecalis (C)	MRSA (C)	–
PF-403: peptide having multiple activities (chain 1 LLSTEQLLKYYDGETFDGFQLPSNE; chain 2 LLSTEQLLKYYDGETFDGFQLPSNE; Peptide with targeting and/or antimicrobial activity)	G B	E. coli; also recorded: P. aeruginosa; also recorded: S. pneumoniae; also recorded: E. faecalis; also recorded: C. jeikeium; also recorded: C. jejuni	E. coli (R)	S. epidermidis (M)	–	–	MRSA (M)	–
PF-404: peptide having multiple activities (chain 1 VLYFQATVV; chain 2 VLYFQATVV; Peptide with targeting and/or antimicrobial activity)	G B	S. epidermidis; also recorded: E. coli; also recorded: P. aeruginosa; also recorded: E. faecalis; also recorded: C. jeikeium; also recorded: C. jejuni	–	S. epidermidis (M)	–	–	MRSA (M)	–
PF-405: peptide having multiple activities (chain 1 LVRIEVDDLEEWYERNFI; chain 2 LVRIEVDDLEEWYERNFI; Peptide with targeting and/or antimicrobial activity)	G B	S. epidermidis; also recorded: E. coli; also recorded: E. faecalis	–	–	–	–	MRSA (M)	–
PF-406: peptide having multiple activities (chain 1 YLEMNADYLSNMDIFDELWEKYLENNK; chain 2 YLEMNADYLSNMDIFDELWEKYLENNK; Peptide with targeting and/or antimicrobial activity)	G B	E. coli; also recorded: C. jejuni	–	S. epidermidis (C)	–	–	MRSA (M)	–
PF-408: peptide having multiple activities (chain 1 YCVPLGNMGNMNNKIW; chain 2 YCVPLGNMGNMNNKIW; Peptide with targeting and/or antimicrobial activity)	G B	S. epidermidis and E. coli and P. aeruginosa and MRSA and E. faecalis and C. jeikeium and C. jejuni	–	S. epidermidis (M)	–	–	MRSA (M)	–
PF-413: peptide having multiple activities (chain 1 TFAGSIKIGVPDLVHVTFNCKR; chain 2 TFAGSIKIGVPDLVHVTFNCKR; Peptide with targeting and/or antimicrobial activity)	G B	P. aeruginosa; also recorded: C. albicans; also recorded: C. jejuni	E. coli (S)	S. epidermidis (C)	–	–	MRSA (C)	–
PF-414: peptide having multiple activities (chain 1 LLNKKLE; chain 2 LLNKKLE; Peptide with targeting and/or antimicrobial activity)	G B	E. coli; also recorded: C. albicans; also recorded: C. jeikeium	–	–	–	–	–	S. pneumoniae (H)
PF-416: peptide having multiple activities (chain 1 SKAGLYGKIERSDKRE; chain 2 SKAGLYGKIERSDKRE; Peptide with targeting and/or antimicrobial activity)	G B	S. pneumoniae; also recorded: C. jeikeium	–	–	–	–	–	S. pneumoniae (H)
